From US20210213097A1, “PEPTIDE INTERACTING WITH TOLL-LIKE RECEPTOR 2 AND THE COMPOSITION COMPRISING THE SAME” (NATIONAL TAIPEI UNIVERSITY OF TECHNOLOGY, priority 2020, published 2021)
“Also recorded” adds a separate entry of the source.

B1: Amuc_1100*: protein Amuc_1100 of Akkermansia muciniphila which does not include the transmembrane domain, SEQ ID NO.1 (protein, listed as Akkermansia muciniphila)
chain: IVNSKRSELDKKISIAAKEIKSANAAEITPSRSSNEELEKELNRYAKAVGSLETAYKPFLASSALVPTTPTAFQNELKTFRDSLISSCKKKNILITDTSSWLGFQVYSTQAPSVQAASTLGFELKAINSLVNKLAECGLSKFIKVYRPQLPIETPANNPEESDEADQAPWTPMPLEIAFQGDRESVLKAMNAITGMQDYLFTVNSIRIRNERMMPPPIANPAAAKPAAAQPATGAASLTPADEAAAPAAPAIQQVIKPYMGKEQVFVQVSLNLVHFNQPKAQEPSED

How the values were obtained:
zebra fish [1] = test: Zebra fish fed 6 times per day (autofat animal model), Example 5: body weight and glucose; format: in vivo; conditions: Example 5, normal diet 6 times per day; for level of glucose: Day 13, FIG. 8 lower panel; for body weight at end of experimentation (Day 13) compared to the original level and the GST group: FIG. 8
Method: Zebra fish was bred in 25° C. water (pH 6.5-7.5, conductivity 250-750 S·m^−1, NH3<0.25 ppm, NO2<0.25 ppm, NO3<0.5 ppm) and was fed with normal diet bid. (brine shrimp). Each group of experimentation comprises 10 zebra fish (n=10). The gavage feeding of Zebra fish follows the protocol disclosed in Collymore et al. (Journal of Visualized Experiment (2013)). During 13 days of experimentation, the zebra fish were fed once a day with the peptide fragments as disclosed herein in a 1× dose of 0.03 μg/day/fish. The weight of zebra fish was measured respectively on day 0, 1, 3, 6, 9, 12 and 13. In the present example, five groups of zebra fish were administered with the peptides as disclosed herein: The material and method employed in the present example is similar to that of Example 3, which is not repeated herein, except the following difference. In the present example, Zebra fish was bred and fed with normal diet (brine shrimp) 6 times per day and also with the peptide as disclosed herein once per day, to induce an autofat animal model. In the present example, five groups of zebra fish were administered with the peptides as disclosed herein: […]

human TLR2 = target: T1, human TLR2 (Homo sapiens, UniProt O60603); test: TLR induction screening in recombinant HEK-293 with NF-KB driven SEAP reporter; format: cell-based; conditions: final concentration 10 μg/ml; recombinant HEK-293 overexpressing human TLR; FIG. 1A
T1 construct: host or cells: recombinant HEK-293
Method: Human Embryonic Kidney Cells 293 (HEK-293) were treated with the peptide fragments as disclosed herein.
Samples and controls are tested in duplicate on recombinant HEK-293 cell lines. These cell lines functionally overexpress human TLR as well as a reporter gene which is a secreted alkaline phosphatase (SEAP). The production of this reporter gene is driven by a NF-KB inducible promoter. The level of activation is given as optical density values (OD).
Samples in 100 μg/ml were diluted to a final concentration of 10 μg/ml in the reaction volume. Sample and controls are tested in duplicated wells. BSA is used as negative control.
SEAP reporter is detected as OD value. OD value is subtracted by average non-induced (NI) value. The NI subtracted duplicates are averaged and presented in a histogram. The reagents and materials employed in the instant examples were provided by Invivogen.

zebra fish [2] = test: Treatment of obesity in zebra fish, Example 3: body weight and glucose; format: in vivo; conditions: 0.03 μg/day/fish
Text: Zebra fish has been for a long time used as a model of obesity in many reports (Hasumura et al. Nutrition & Metabolism (2012); […] et al. Nutrition & Metabolism (2011); Oka et al. BMC Physiology (2010); Shimada et al. Nutrition & Metabolism (2015); Meguro et al. Scientific Reports (2019); Montalbano et al. Endocrine (2018); Yang et al. Cancer (2019)), which is also used herein as the subject of treatment of obesity with the peptides as disclosed herein. All peptides used in the present example were purified through CHT beads to remove endotoxin. LAL assay was further conducted and it was confirmed that the residue of endotoxin was under 0.25 EU/ml. Zebra fish was bred in 25° C. water (pH 6.5-7.5, conductivity 250-750 S·m^-1, NH3<0.25 ppm, NO2<0.25 ppm, NO3<0.5 ppm) and was fed with normal diet bid. (brine shrimp). Each group of experimentation comprises 10 zebra fish (n=10). The gavage feeding of Zebra fish follows the protocol disclosed in Collymore et al. (Journal of Visualized Experiment (2013)). During 13 days of experimentation, the zebra fish were fed once a day with the peptide fragments as disclosed herein in a 1× dose of 0.03 μg/day/fish. The weight of zebra fish was measured respectively on day 0, 1, 3, 6, 9, 12 and 13. In the present example, five groups of zebra fish were administered with the peptides as disclosed herein: […]

[3] = system: gene expression of MPX, IL10, CD86, and IL4; test: RT-qPCR of gene expression in zebra fish treated with peptide, Example 3; format: in vivo; conditions: Day 13, FIG. 4
Method: Y axis (-ΔΔCT) represents the difference in the threshold cycle of amplification. **: P<0.01; ****: P<0.0001. Further, the RT(reversed-transcription)-qPCR was conducted to detect the quantity of gene expression of MPX, IL10, CD86, and IL4 in the zebra fish treated with AMSS according to the present example. […] (FIG. 4)

T1 sequence (O60603 21-784): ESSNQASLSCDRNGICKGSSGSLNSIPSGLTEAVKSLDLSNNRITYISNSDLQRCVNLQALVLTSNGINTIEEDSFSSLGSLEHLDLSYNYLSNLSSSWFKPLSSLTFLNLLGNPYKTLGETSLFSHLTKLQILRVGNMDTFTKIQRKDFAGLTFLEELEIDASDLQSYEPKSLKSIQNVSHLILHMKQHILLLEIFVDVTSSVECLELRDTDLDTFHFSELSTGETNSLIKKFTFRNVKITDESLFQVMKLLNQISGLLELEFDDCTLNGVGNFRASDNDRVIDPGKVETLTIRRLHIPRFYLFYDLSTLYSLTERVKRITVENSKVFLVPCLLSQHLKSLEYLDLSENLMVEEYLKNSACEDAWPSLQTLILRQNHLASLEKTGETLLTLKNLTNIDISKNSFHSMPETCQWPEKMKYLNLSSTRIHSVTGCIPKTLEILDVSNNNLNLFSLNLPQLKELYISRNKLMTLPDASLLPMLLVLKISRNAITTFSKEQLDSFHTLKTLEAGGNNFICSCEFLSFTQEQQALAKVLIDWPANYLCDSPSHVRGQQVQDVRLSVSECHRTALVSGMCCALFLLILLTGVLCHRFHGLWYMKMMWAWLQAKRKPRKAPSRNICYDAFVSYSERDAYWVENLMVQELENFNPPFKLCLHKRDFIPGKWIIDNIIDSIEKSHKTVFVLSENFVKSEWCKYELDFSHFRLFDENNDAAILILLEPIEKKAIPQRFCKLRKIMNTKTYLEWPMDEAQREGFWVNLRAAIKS

Molecule	level of glucose (zebra fish [1])	body weight at end of experimentation (Day 13) compared to the original level and the GST group (zebra fish [1])	induction of TLR (SEAP reporter, OD) (human TLR2)	glucose detected in the serum of zebra fish (zebra fish [2]; Day 13, FIG. 3 lower panel)	reduction in body weight at end of experimentation (Day 13) (zebra fish [2]; Day 13 versus day 0, FIG. 3 upper panel)	change in body weight of zebra fish (zebra fish [2]; gavage once a day, 13 days, normal diet bid, FIG. 2)	reduction of body weight in average (zebra fish [2]; gavage once a day, end of experimentation, FIG. 2)	gene expression of IL4 [3]	gene expression of IL10 [3]	gene expression of MPX [3]
AMS5-2: fragment of Amuc_1100*, sequence GLSKFIKVYRPQL (listed as Akkermansia muciniphila)	reduced	further reduced	–	–	–	–	–	–	–	–
AMS5: fragment of Amuc_1100*, sequence AINSLVNKLAECGLSKFIKVYRPQL (listed as Akkermansia muciniphila)	–	–	strongly and specifically activated; also recorded: capable to activate TLR2; also recorded: shows the activity for induction of TLR	did not reduce	shows statistical significance	significant reduction in body weight	approximately 20 mg	significantly reduced	significantly reduced	did not
B1	reduced	further reduced	–	–	–	–	–	–	–	–
